Where two headings read alike, the source gives them in different places.

The test system of one assay is MOLM-14 cells. The assay is described as follows: WST-1 cell proliferation assay, MOLM-14. It counts as cell-based, human. As to conditions: cell proliferation. How it is done: (§1) Cell lines were seeded into 96-well plates the afternoon prior to treatment. Approximately 18 hours later, bis and mono-aziridine dimeric naphthoquinone compounds were semi-serially diluted in dimethyl sulfoxide (DMSO) and then growth medium, and added to cells. Plates were incubated for 72 hours prior to addition of WST-1 (Promega®). Plates were read after 4 additional hours of incubation at 37° C. using a Bio-Tek Synergy® HT plate reader (Bio-Tek®). Data were analyzed and graphed using GraphPad Prism® Software (Graph Pad®).
(§2) Primary AML cells from patients and cell lines were seeded into 96-well plates the afternoon prior to treatment. Eighteen hours later, amino-dimeric naphthoquinone Compounds 106, 101, and 114 were semi-serially diluted in dimethyl sulfoxide (DMSO) and then growth medium, and added to the cells. In order to quantitate proliferation of metabolically active cells, plates were incubated for 72 hours for cell lines and 48 hours for primary AML cells prior to addition of water-soluble tetrazolium (WST-1) (Clontech®). Plates were read after four additional hours of incubation at 37° C. using a Bio-Tek Synergy® HT plate reader (Bio-Tele®). Data were analyzed and graphed using GraphPad Prism® Software (GraphPad®). IC50 was defined as the concentration that decreases viable cell numbers by 50%. IC50 values were calculated as mean±standard deviation from at least two independent experiments. If availability of primary blasts was limited, the IC50 was obtained from a single experiment.
To investigate antiproliferative activity of amino-dimeric naphthoquinones against AML cells, an MTT-like cell proliferation assay was performed in the AML cell lines using WST-1 (water soluble tetrazolium salts; Promega®). MOLM-14 and AML-D cells, as well as normal hematopoietic bone marrow cells from a healthy donor, were exposed to a range of concentrations of Compound 101. Human leukemia cells were cultured in the presence of the compound for 72 hours (48 hours for primary cells) and WST-1 reagent was then added. The cells then were monitored for cell growth or the number of cells proliferating and the IC50 calculated. The IC50 is the concentration at which 50% of the cells are not proliferating compared to control cells treated with vehicle. See FIG. 2A, FIG. 2B, and FIG. 2C for representative graphs of these IC50 determinations.
A general note: Tetrazolium dyes change colour on reduction, which living cells bring about.

The test system of a further assay is MV4-11 cells. The assay is described as follows: WST-1 cell proliferation assay, MV4-11. It counts as cell-based, human. How it is done: as §1, §2
[1] abbreviates: Table 1, cell proliferation, read-out: MV411 IC50.
Where [2] appears, read: Homo sapiens, MOLM-14, Table 2, read-out: MOLM14 IC50.
Setting [3] is: Homo sapiens, MV4-11, Table 2, cell proliferation, read-out: MV411 IC50.
[4] abbreviates: Homo sapiens, MOLM-14, Table 3, read-out: MOLM14 IC50.
[5] abbreviates: Homo sapiens, MOLM-14, Table 9, read-out: IC50 (μM) MOLM-14.
[6] abbreviates: Homo sapiens, MV4-11, Table 3, cell proliferation, read-out: MV411 IC50.
The mark [7] stands for this setting: Homo sapiens, MV4-11, Table 9, cell proliferation, read-out: IC50 (μM) MV411.
Where [8] appears, read: Homo sapiens, MOLM-14, Table 7, read-out: IC50 (μM) MOLM-14.
Setting [9] is: Homo sapiens, MV4-11, Table 7, cell proliferation, read-out: IC50 (μM) MV411.
Setting [10] is: Table 2, cell proliferation, read-out: MV411 IC50.
The mark [11] stands for this setting: Homo sapiens, MOLM-14, Table 1, read-out: MOLM14 IC50.
The mark [12] stands for this setting: Homo sapiens, MV4-11, Table 1, cell proliferation, read-out: MV411 IC50.

Regarding “3-chloro-3′-(4-hydroxypiperidinyl)-2,2′-binaphthalenyl-1,1′,4,4′-tetrone [Compound 127]”, the IC50 (commonly the point on the concentration scale where inhibition reaches its midpoint) in the assay on MOLM-14 cells (Table 1, read-out: MOLM14 IC50) was found to be 3.6 ± 0.63 µM; in the assay with MV4-11 cells (setting [1]), 2.1 ± 0.56 µM.

On to “3-chloro-3′-hydroxy dimeric naphthoquinone [Compound 144, reference compound]”, for which the IC50 was determined as 6.5 ± 0.28 µM in the assay on MOLM-14 cells (Table 1, read-out: MOLM14 IC50); 6.3 µM in the assay on MOLM-14 cells (Table 7, read-out: IC50 (μM) MOLM-14); 3 ± 0.07 µM with MV4-11 cells (setting [1]); 3 µM with MV4-11 cells (Table 7, cell proliferation, read-out: IC50 (μM) MV411).

For `CN(C)CCNC1=C(C2=C(NCCN(C)C)C(=O)c3ccccc3C2=O)C(=O)c2ccccc2C1=O` [Compound 103, 3,3′-bis({[2-(dimethylamino)ethyl]amino})-[2,2′-binaphthalene]-1,1′,4,4′-tetrone], the results for the IC50 in the assay with MOLM-14 cells (setting [2]) and in the assay on MV4-11 cells (setting [3]) were 0.12 µM and 0.49 µM, respectively.

Regarding `COc1ccc2c(c1)C(=O)C(NCCO)=C(C1=C(NCCO)C(=O)c3ccccc3C1=O)C2=O` [Compound 104, 3,3′-bis(2-hydroxyethylamino)-6-methoxy-2,2′-binaphthalenyl-1,1′,4,4′-tetrone], the IC50 with MOLM-14 cells (setting [4]) was 0.37 ± 0.17 µM; with MOLM-14 cells (setting [5]), 1.32 ± 0.23 µM; in the assay on MV4-11 cells (setting [6]), 1.16 ± 0.2 µM; in the assay on MV4-11 cells (setting [7]) it was 2.05 ± 0.4 µM.

Turning to `O=C1C(NCCO)=C(C2=C(NCCO)C(=O)c3cc(F)ccc3C2=O)C(=O)c2ccccc21` [Compound 105, 3,3′-bis(2-hydroxyethylamino)-6-fluoro-2,2′-binaphthyl-1,1′,4,4′-tetrone], the IC50 with MOLM-14 cells (setting [4]) is 1.3 ± 0.23 µM; in the assay with MV4-11 cells (setting [6]), 2.05 ± 0.4 µM.

For `CN(CCO)C1=C(C2=C(N(C)CCO)C(=O)c3ccccc3C2=O)C(=O)c2ccccc2C1=O` [Compound 107, 3,3′-bis-[(2-hydroxyethyl)(N-methyl)amino]-2,2′-binaphthalenyl-1,1′,4,4′-tetrone], the IC50 in the assay with MOLM-14 cells (setting [4]) was 5.85 ± 0.64 µM; in the assay on MOLM-14 cells (setting [8]), 6.3 µM; in the assay on MV4-11 cells (setting [6]), 5.25 ± 0.35 µM; in the assay on MV4-11 cells (setting [9]) it was 5 µM.

Take `COCCN(C)C1=C(C2=C(N(C)CCOC)C(=O)c3ccccc3C2=O)C(=O)c2ccccc2C1=O` [Compound 108, 3,3′-bis-[(2-methoxyethyl)(N-methyl)amino]-2,2′-binaphthalenyl-1,1′,4,4′-tetrone]: the half-maximal inhibitory concentration (IC50) worked out at 5.55 ± 0.78 µM in the assay with MOLM-14 cells (setting [4]), 6.1 µM in the assay on MOLM-14 cells (setting [8]), 5.5 ± 0.71 µM with MV4-11 cells (setting [6]) and 6 µM in the assay on MV4-11 cells (setting [9]).

As for `CC(=O)OCCNC1=C(C2=C(NCCOC(C)=O)C(=O)c3ccccc3C2=O)C(=O)c2ccccc2C1=O` [Compound 109, 3,3′bis-[(2-acyloxyethyl)amino]-2,2′-binaphthalenyl-1, -1′,4,4′-tetrone], the concentration for half-maximal inhibition (IC50) with MOLM-14 cells (setting [4]) was 1 µM; in the assay on MV4-11 cells (setting [6]), 2.2 ± 0.74 µM.

In the case of `O=C1C(C2=C(N3CCN(CCOCCO)CC3)C(=O)c3ccccc3C2=O)=C(N2CCN(CCOCCO)CC2)C(=O)c2ccccc21` [Compound 110, 3,3′-bis(4-(2-(2-hydroxyethoxy)ethyl)piperazin-1-yl)-[2,2′-binaphthalene]-1,1′,4,4′-tetrone], the half-maximal inhibitory concentration (IC50) amounted to 1.9 ± 0.32 µM with MOLM-14 cells (setting [4]) and 140 ± 0.91 µM with MV4-11 cells (setting [6]).

In the case of `CC(O)CNC1=C(C2=C(NCC(C)O)C(=O)c3ccccc3C2=O)C(=O)c2ccccc2C1=O` (stereo not drawn) [Compound 112], the half-maximal inhibitory concentration (IC50) was 1.49 ± 0.46 µM in the assay on MOLM-14 cells (setting [4]) and 3.94 ± 2.23 µM in the assay on MV4-11 cells (setting [6]).

For the compound `CN(C)C1=C(C2=C(N(C)C)C(=O)c3ccccc3C2=O)C(=O)c2ccccc2C1=O` [Compound 114, 3,3′-bis(dimethylamino)-[2,2′-binaphthalene]-1,1′,4,4′-tetrone], the IC50 in the assay on MV4-11 cells (Homo sapiens, MV4-11, Example 5 text, unit inferred, read-out: IC50 against MV4-11) worked out at 2.4 ± 0.3 µM.

As for `O=C1C(NCCO)=C(C2=C(NCCO)C(=O)c3ccccc3C2=O)C(=O)c2ccccc21` [Compound 115], the half-maximal inhibitory concentration (IC50) in the assay on MOLM-14 cells (setting [5]) is 0.15 ± 0.01 µM; in the assay with MV4-11 cells (setting [7]), 0.2 ± 0.02 µM.

As for `O=C1C(C2=C(N3CCN(CCO)CC3)C(=O)c3ccccc3C2=O)=C(N2CCN(CCO)CC2)C(=O)c2ccccc21` [Compound 116], the values for the IC50 with MOLM-14 cells (setting [5]) and in the assay on MV4-11 cells (setting [7]) were 1.17 µM and 1.65 µM, respectively.

For the compound `O=C1C(C2=C(N3CCC(O)CC3)C(=O)c3ccccc3C2=O)=C(N2CCC(O)CC2)C(=O)c2ccccc21` [Compound 117], the figures for the IC50 in the assay with MOLM-14 cells (setting [5]) and in the assay on MV4-11 cells (setting [7]) were 4.3 ± 2.1 µM and 2.5 µM, respectively.

Turning to `CN(CCO)C1=C(C2=C(N(C)CCO)C(=O)c3ccccc3C2=O)C(=O)c2ccccc2C1=O` [Compound 118], the half-inhibitory concentration (IC50) in the assay on MOLM-14 cells (setting [5]) worked out at 5.8 ± 0.6 µM; in the assay on MV4-11 cells (setting [7]), 5.25 ± 0.3 µM.

On to `CC(=O)OCCNC1=C(C2=C(NCCOC(C)=O)C(=O)c3ccccc3C2=O)C(=O)c2ccccc2C1=O` [Compound 119], for which the concentration for half-maximal inhibition (IC50) in the assay with MOLM-14 cells (setting [5]) came out at 1 µM; in the assay on MV4-11 cells (setting [7]), 2.2 ± 0.7 µM.

Take `CN(C)C1=C(C2=C(N(C)C)C(=O)c3ccccc3C2=O)C(=O)c2ccccc2C1=O` [Compound 120, 3,3′-bis-(2-dimethylamino)-2,2′-biuaphthalenyl-1,1′,4,4′-tetrone]: the concentration for half-maximal inhibition (IC50) with MOLM-14 cells (setting [2]) was 2.8 ± 0.91 µM; with MOLM-14 cells (setting [8]) it was 2.9 µM; in the assay on MV4-11 cells (setting [3]) it was 2.15 ± 0.64 µM; with MV4-11 cells (setting [9]), 2.4 µM.

For the compound `O=C1C(C2=C(N3CCN(CCO)CC3)C(=O)c3ccccc3C2=O)=C(N2CCN(CCO)CC2)C(=O)c2ccccc21` [Compound 121, 3,3′-bis[4-(2-hydroxyethyl)piperazin-1-yl]-4a,5a-dihydro-[2,2′-binaphthalene]-1,1′,4,4′-tetrone], the IC50 in the assay on MOLM-14 cells (Table 2, read-out: MOLM14 IC50) was determined as 1.17 µM; in the assay on MV4-11 cells (setting [10]) it was 1.65 µM.

Regarding `O=C1C(C2=C(N3CCC(O)CC3)C(=O)c3ccccc3C2=O)=C(N2CCC(O)CC2)C(=O)c2ccccc21` [Compound 122, 3,3′-bis-(4-hydroxypiperidinyl)-2,2′-binaphthalenyl-1,1′,4,4′-tetrone], the IC50 in the assay on MOLM-14 cells (Table 2, read-out: MOLM14 IC50) was determined as 4.3 ± 2.12 µM; with MV4-11 cells (setting [10]) it was 2.5 µM.

For `CN(C)C1=C(C2=C(Cl)C(=O)c3ccccc3C2=O)C(=O)c2ccccc2C1=O` [Compound 123, 3-chloro-3′-(dimethylamino)-2,2′-binaphthalenyl-1,1′,4,4′-tetrone], the 50% inhibitory concentration (IC50) in the assay with MOLM-14 cells (setting [11]) is 3 ± 1.42 µM; with MOLM-14 cells (setting [8]), 3 µM; in the assay on MV4-11 cells (setting [12]), 2.4 ± 2 µM; with MV4-11 cells (setting [9]), 2.4 µM.

Take `CN(C)CCN(C)C1=C(C2=C(Cl)C(=O)c3ccccc3C2=O)C(=O)c2ccccc2C1=O` [Compound 124, 3-chloro-3′((2-(dimethylamino)ethyl)(methyl)amino)-[2,2′-binaphthalene]-1,1′,4,4′-tetrone]: the IC50 is 2.8 ± 0.01 µM with MOLM-14 cells (setting [11]), 2.8 µM in the assay with MOLM-14 cells (setting [8]), 1.3 ± 1 µM in the assay on MV4-11 cells (setting [12]) and 1.3 µM with MV4-11 cells (setting [9]).

For `O=C1C(Cl)=C(C2=C(NCCO)C(=O)c3ccccc3C2=O)C(=O)c2ccccc21` [Compound 125, 3-chloro-3′-[(2-hydroxyethyl)amino]-2,2′-binaphthalenyl-1,1′,4,4′-tetrone], the half-inhibitory concentration (IC50) worked out at 2.2 µM in the assay on MOLM-14 cells (setting [11]), 2.2 µM in the assay on MOLM-14 cells (setting [8]), 1.2 µM in the assay with MV4-11 cells (setting [12]) and 1.2 µM with MV4-11 cells (setting [9]).

`O=C1C(Cl)=C(C2=C(N3CCN(CCO)CC3)C(=O)c3ccccc3C2=O)C(=O)c2ccccc21` [Compound 126, 3-chloro-3′-[(4-hydroxyethyl)piperazinyl]-2,2′-binaphthalenyl-1,1′,4,4′-tetrone]: the IC50 in the assay with MOLM-14 cells (setting [11]) is 0.85 ± 0.25 µM; in the assay with MOLM-14 cells (setting [8]) it was 0.6 µM; with MV4-11 cells (setting [12]), 0.76 ± 0.36 µM; in the assay with MV4-11 cells (setting [9]), 0.5 µM.

`CN(C)C1=C(C2=C(N(C)C)C(=O)c3ccccc3C2=O)C(=O)c2ccccc2C1=O` [Compound 135]: the half-maximal inhibitory concentration (IC50) in the assay on MOLM-14 cells (setting [5]) was 2.8 ± 0.9 µM; with MV4-11 cells (setting [7]) it was 2.2 ± 0.6 µM.

Consider `O=C1C(NCCO)=C(C2=C(NCCO)C(=O)c3cc(F)ccc3C2=O)C(=O)c2ccccc21` [Compound 137], for which the figures for the IC50 with MOLM-14 cells (setting [5]) and in the assay with MV4-11 cells (setting [7]) were 0.37 ± 0.17 µM and 1.16 ± 0.2 µM, respectively.

Take `O=C1C(Cl)=C(C2=C(Cl)C(=O)c3cc(Br)ccc3C2=O)C(=O)c2ccccc21` [Compound 139]: the IC50 in the assay on MOLM-14 cells (setting [8]) was 7.1 µM; with MV4-11 cells (setting [9]) it was 5 µM.
